Molecular target: T1, Interleukin-23 subunit alpha/receptor (UniProt Q9NPF7+Q5VWK5)
T1 sequence (Q9NPF7 whole entry): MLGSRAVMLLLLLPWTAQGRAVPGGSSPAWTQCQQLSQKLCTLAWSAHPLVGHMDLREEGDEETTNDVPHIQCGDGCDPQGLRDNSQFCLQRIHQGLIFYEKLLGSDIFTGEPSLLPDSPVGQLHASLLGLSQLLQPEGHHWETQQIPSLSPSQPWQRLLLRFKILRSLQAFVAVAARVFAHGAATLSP
T1 sequence (Q5VWK5 whole entry): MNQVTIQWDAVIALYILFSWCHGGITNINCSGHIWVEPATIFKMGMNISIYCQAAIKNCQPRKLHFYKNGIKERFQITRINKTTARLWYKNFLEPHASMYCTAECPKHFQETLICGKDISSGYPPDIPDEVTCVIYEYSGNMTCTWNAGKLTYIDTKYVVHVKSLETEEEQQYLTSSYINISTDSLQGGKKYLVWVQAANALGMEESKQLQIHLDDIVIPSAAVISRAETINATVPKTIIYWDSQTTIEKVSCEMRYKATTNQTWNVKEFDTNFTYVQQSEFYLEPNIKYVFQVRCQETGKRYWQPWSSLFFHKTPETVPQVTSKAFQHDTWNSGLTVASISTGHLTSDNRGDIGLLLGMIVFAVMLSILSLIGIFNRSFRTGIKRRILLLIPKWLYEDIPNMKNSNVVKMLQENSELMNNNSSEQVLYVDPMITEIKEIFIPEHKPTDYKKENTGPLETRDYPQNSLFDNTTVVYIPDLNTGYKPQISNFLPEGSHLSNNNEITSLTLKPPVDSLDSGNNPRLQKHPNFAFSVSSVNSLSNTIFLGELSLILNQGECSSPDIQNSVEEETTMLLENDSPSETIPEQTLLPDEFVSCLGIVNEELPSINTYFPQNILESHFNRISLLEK
Assay: ELISA assay for specific human IL-23R inhibitors
Procedure, shortened: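 Plates coated overnight at 4 °C with human IL-23 ([…] final) and blocked. Serially diluted peptides added with recombinant human IL-23R-Fc ([…] final), 60 min at room temperature. Bound IL-23R-Fc detected with anti-human IgG1-HRP and fluorogenic peroxidase substrate.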

Row | IC50 | SMILES
1 | 1.21 nM | COc1ccc(C[C@@H]2NC(=O)[C@H](CCCNC(=N)N)NC(=O)[C@H](CCC(N)=O)NC(=O)[C@H](Cc3cn(C)c4ccccc34)NC(=O)[C@H]([C@@H](C)O)NC(=O)[C@H](CC(N)=O)NC(=O)[C@H](NC(C)=O)CCCCNC(=O)C[C@@H](C(=O)N[C@@H](CC(N)=O)C(=O)N[C@@H](CC(N)=O)C(=O)O)NC(=O)[C@H](CC(C)C)NC(=O)[C@H](Cc3ccc4ccccc4c3)NC2=O)cc1 [WO2025051920, Example 24]
2 | 4.66 nM | COc1ccc(C[C@@H]2NC(=O)[C@H](C)NC(=O)[C@H](CCC(N)=O)NC(=O)[C@H](Cc3c[nH]c4ccccc34)NC(=O)C([C@@H](C)O)NC(=O)[C@H](CC(N)=O)NC(=O)C(N)CCCCNC(=O)C[C@H](C(=O)N[C@@H](CC(N)=O)C(=O)N[C@@H](CC(N)=O)C(=O)O)NC(=O)C(C)(C)NC(=O)[C@H](Cc3ccc4ccccc4c3)NC2=O)cc1 (some centres not stated) [WO2025051920, Example 44]
